Read-outs that look alike come from different tables or passages of the source. Numbered stars: 1 amine (or outer) side, 2 acyl side, 3 side chain; on linkers, the order of the positions; unused ones are H or OH. Square brackets hold non-standard residues; d marks the D form. Side chains are listed from the residue outwards. Peptide text beside a SMILES is read from it. * marks the point of attachment. C18 diacid = O=C(O)CCCCCCCCCCCCCCCCC(=O)*; γGlu = O=C(O)[C@H](CCC(=O)[*:2])N[*:1]; αMeF = C[C@](N)(Cc1ccccc1)C(=O)O; αMeK = C[C@](N)(CCCCN)C(=O)O; αMeS = C[C@](N)(CO)C(=O)O; AEEA = NCCOCCOCC(=O)O; Aib = CC(C)(N)C(=O)O
Tests used:
Type in all cases: cell-based
[1] = biological target: T1, human GLP-1 receptor (GLP-1R) (Homo sapiens, UniProt P43220); test: cAMP assay, human GLP-1R cells
T1 construct: expressed in transfected cells; host or cells: HEK293 cells or CHO cells
How it was run: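 Peptide-stimulated cAMP measured by two-step HTRF after a 30 min room-temperature incubation with receptor-expressing cells (hGLP-1R, hGIPR at 1×10^5 cells/ml; hGCGR at 2×10^5 cells/ml). Duplicate dilutions; EC50 from 4-parameter logistic fit of % Delta F.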

[2] = biological target: T2, human glucagon receptor (GCGR) (Homo sapiens, UniProt P47871); test: cAMP assay, human GCGR cells; details: read-out: Primary assay EC50 Gluc-R
T2 construct: expressed in transfected cells; host or cells: HEK293 cells or CHO cells
Method: (§1) Sample dilutions are made in duplicate.
(§2) A frozen cryo-vial of cells expressing the receptor of interest is thawed rapidly in a water-bath, transferred to pre-warmed assay buffer and spun at 240×g for 5 minutes. Cells are re-suspended in assay buffer at a batch-dependent optimized concentration (e.g. hGCGR cells at 2×10^5 cells/ml, hGLP-1R and hGIPR cells at 1×10^5 cells/ml).
(§3) To this, 5 μL cell suspension is added and the plates incubated at room temperature for 30 minutes.
(§4) cAMP levels are measured using a commercially available cAMP dynamic 2 HTRF kit (Cisbio, Cat #62AM4PEJ), following the two step protocol as per manufacturer's recommendations. In brief; anti-cAMP cryptate (donor fluorophore) and cAMP-d2 (acceptor fluorophore) are made up separately by diluting each 1/20 in conjugate & lysis buffer provided in the kit. 5 μL anti-cAMP cryptate is added to wells of the assay plate, and 5 μL cAMP-d2 is added to wells except non-specific binding (NSB) wells, to which conjugate and lysis buffer are added. […] EC50 values of the synthetic peptides determined in cAMP assays are then determined.
(§5) Data is transformed to % Delta F as described in the manufacturer's guidelines and analyzed by 4-parameter logistic fit to determine EC50 values. […] To compare the balance of activities at the GLP-1R and GCGR between different peptides and across different conditions, these can be correlated, where the EC50's are related to those of comparator peptides.

[3] = biological target: T3, human glucose-dependent insulinotropic peptide receptor (GIPR) (Homo sapiens, UniProt P48546); test: cAMP assay, human GIPR cells; details: read-out: Primary assay EC50 GIP-R
T3 construct: expressed in transfected cells; host or cells: HEK293 cells or CHO cells
T3 sequence (P48546 22-466): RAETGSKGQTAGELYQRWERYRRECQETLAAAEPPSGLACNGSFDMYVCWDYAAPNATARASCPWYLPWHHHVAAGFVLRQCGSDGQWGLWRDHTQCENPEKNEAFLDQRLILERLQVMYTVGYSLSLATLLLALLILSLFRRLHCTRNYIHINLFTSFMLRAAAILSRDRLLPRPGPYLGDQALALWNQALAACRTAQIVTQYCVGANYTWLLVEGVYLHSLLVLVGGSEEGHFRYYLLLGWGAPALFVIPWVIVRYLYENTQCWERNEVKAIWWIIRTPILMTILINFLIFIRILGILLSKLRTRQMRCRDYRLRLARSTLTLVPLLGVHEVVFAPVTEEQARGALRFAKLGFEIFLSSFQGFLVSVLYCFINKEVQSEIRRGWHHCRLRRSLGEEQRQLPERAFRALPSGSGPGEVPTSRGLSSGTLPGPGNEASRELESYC
Method: as §1, §2, §3, §4, §5

[4] = cAMP activity, first determination (n1), read-out: Primary assay EC50 GLP-1R n1
[5] = cAMP activity, mean of n1 and n2, read-out: Mean pM GLP-1R
[6] = cAMP activity, second determination (n2), read-out: Primary assay EC50 GLP-1R n2
[7] = cAMP activity, second determination (n2)
[8] = cAMP activity, first determination (n1)

T2 sequence (P47871 26-477): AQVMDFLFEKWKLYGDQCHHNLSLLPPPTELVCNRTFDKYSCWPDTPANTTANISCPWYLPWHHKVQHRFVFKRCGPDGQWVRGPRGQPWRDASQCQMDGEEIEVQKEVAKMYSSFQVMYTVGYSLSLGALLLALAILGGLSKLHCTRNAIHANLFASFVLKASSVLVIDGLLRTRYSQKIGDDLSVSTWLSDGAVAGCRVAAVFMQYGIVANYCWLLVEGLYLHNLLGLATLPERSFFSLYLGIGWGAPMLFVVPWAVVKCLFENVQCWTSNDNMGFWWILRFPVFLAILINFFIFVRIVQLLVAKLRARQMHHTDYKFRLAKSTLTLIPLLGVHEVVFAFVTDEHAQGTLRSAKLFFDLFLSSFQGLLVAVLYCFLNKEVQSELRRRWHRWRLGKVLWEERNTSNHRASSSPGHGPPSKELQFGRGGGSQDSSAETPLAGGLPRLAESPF
T1 sequence (P43220 24-463): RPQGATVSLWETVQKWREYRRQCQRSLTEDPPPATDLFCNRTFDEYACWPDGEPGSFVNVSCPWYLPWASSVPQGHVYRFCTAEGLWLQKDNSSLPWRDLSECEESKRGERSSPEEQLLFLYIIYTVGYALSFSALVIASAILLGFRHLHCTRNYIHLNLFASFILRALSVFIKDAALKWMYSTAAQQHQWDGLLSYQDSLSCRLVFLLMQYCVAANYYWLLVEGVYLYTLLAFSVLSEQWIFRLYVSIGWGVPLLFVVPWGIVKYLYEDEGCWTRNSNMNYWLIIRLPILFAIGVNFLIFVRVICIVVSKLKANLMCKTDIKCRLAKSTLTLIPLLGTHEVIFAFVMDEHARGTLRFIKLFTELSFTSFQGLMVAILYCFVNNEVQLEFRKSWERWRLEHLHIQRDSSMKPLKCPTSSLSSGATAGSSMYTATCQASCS

For CC(C)C[C@H](NC(=O)[C@](C)(Cc1ccccc1)NC(=O)[C@H](CO)NC(=O)[C@](C)(CO)NC(=O)[C@@H](NC(=O)[C@H](CC(=O)O)NC(=O)[C@H](CO)NC(=O)[C@@H](NC(=O)[C@](C)(Cc1ccccc1)NC(=O)[C@H](CO)NC(=O)CNC(=O)[C@H](CCC(=O)O)NC(=O)C(C)(C)NC(=O)[C@@H](N)Cc1c[nH]cn1)[C@@H](C)O)C(C)C)C(=O)N[C@@H](CCC(=O)O)C(=O)NCC(=O)N[C@@H](CCC(=O)O)C(=O)N[C@@H](C)C(=O)N[C@@H](C)C(=O)N[C@@](C)(CCCCN)C(=O)N[C@@H](CCC(=O)O)C(=O)N[C@@](C)(Cc1ccccc1)C(=O)N[C@@H](CCCCNC(=O)COCCOCCNC(=O)COCCOCCNC(=O)CC[C@H](NC(=O)CCCCCCCCCCCCCCCCC(=O)O)C(=O)O)C(=O)N[C@@H](C)C(=O)N[C@@](C)(Cc1ccccc1)C(=O)N[C@H](C(=O)N[C@H](C(=O)N[C@@](C)(CCCCN)C(=O)NCC(=O)NCC(N)=O)C(C)C)C(C)C [compound 106] (H-H[Aib]EGS[αMeF]TSDV[αMeS]S[αMeF]LEGEAA[αMeK]E[αMeF]K([AEEA-AEEA-γGlu-C18 diacid])A[αMeF]VV[αMeK]GG-NH2), the EC50 [1, 4] was 6500 pM, the EC50 [1, 5] was 6140 pM and the EC50 [1, 6] was 5790 pM. The EC50 [2, 7] was no less than 25.3 nM, the EC50 [3, 8] was no less than 25 nM and the EC50 [3, 7] was no less than 25.3 nM.

CC[C@H](C)[C@H](NC(=O)[C@](C)(Cc1ccccc1)NC(=O)[C@H](CCC(=O)O)NC(=O)[C@](C)(CCCCN)NC(=O)[C@H](C)NC(=O)[C@H](C)NC(=O)[C@H](CCC(=O)O)NC(=O)CNC(=O)[C@H](CCC(=O)O)NC(=O)[C@H](CC(C)C)NC(=O)[C@](C)(Cc1ccccc1)NC(=O)[C@H](CO)NC(=O)[C@H](CCCCNC(=O)COCCOCCNC(=O)COCCOCCNC(=O)CC[C@H](NC(=O)CCCCCCCCCCCCCCCCC(=O)O)C(=O)O)NC(=O)[C@@H](NC(=O)[C@H](CC(=O)O)NC(=O)[C@H](CO)NC(=O)[C@@H](NC(=O)[C@](C)(Cc1ccccc1)NC(=O)[C@H](CO)NC(=O)CNC(=O)[C@H](CCC(=O)O)NC(=O)C(C)(C)NC(=O)[C@@H](N)Cc1c[nH]cn1)[C@@H](C)O)C(C)C)C(=O)N[C@@H](C)C(=O)N[C@@](C)(Cc1ccccc1)C(=O)N[C@H](C(=O)N[C@H](C(=O)N[C@@](C)(CCCCN)C(=O)NCC(=O)NCC(N)=O)C(C)C)C(C)C [compound 118] showed an EC50 [1, 4] of 810 pM, an EC50 [1, 5] of 783 pM and an EC50 [1, 6] of 758 pM. It also gave an EC50 [2, 7] of no less than 25.2 nM, an EC50 [3, 8] of no less than 25 nM and an EC50 [3, 7] of no less than 25.2 nM.

For CC[C@H](C)[C@H](NC(=O)[C@](C)(Cc1ccccc1)NC(=O)[C@H](CCC(=O)O)NC(=O)[C@](C)(CCCCN)NC(=O)[C@H](C)NC(=O)[C@H](C)NC(=O)[C@H](CCC(=O)O)NC(=O)CNC(=O)[C@H](CCC(=O)O)NC(=O)[C@H](CC(C)C)NC(=O)[C@](C)(Cc1ccccc1)NC(=O)[C@H](CO)NC(=O)[C@](C)(CO)NC(=O)[C@@H](NC(=O)[C@H](CC(=O)O)NC(=O)[C@H](CCCCNC(=O)COCCOCCNC(=O)COCCOCCNC(=O)CC[C@H](NC(=O)CCCCCCCCCCCCCCCCC(=O)O)C(=O)O)NC(=O)[C@@H](NC(=O)[C@](C)(Cc1ccccc1)NC(=O)[C@H](CO)NC(=O)CNC(=O)[C@H](CCC(=O)O)NC(=O)C(C)(C)NC(=O)[C@@H](N)Cc1c[nH]cn1)[C@@H](C)O)C(C)C)C(=O)N[C@@H](C)C(=O)N[C@@](C)(Cc1ccccc1)C(=O)N[C@H](C(=O)N[C@H](C(=O)N[C@@](C)(CCCCN)C(=O)NCC(=O)NCC(N)=O)C(C)C)C(C)C [compound 121] (H-H[Aib]EGS[αMeF]TK([AEEA-AEEA-γGlu-C18 diacid])DV[αMeS]S[αMeF]LEGEAA[αMeK]E[αMeF]IA[αMeF]VV[αMeK]GG-NH2; N-terminus assumed), the EC50 [1, 4] was no less than 25000 pM, the EC50 [1, 5] was no less than 25100 pM and the EC50 [1, 6] was no less than 25100 pM. It also gave an EC50 [2, 7] of no less than 25.1 nM, an EC50 [3, 8] of no less than 25 nM and an EC50 [3, 7] of no less than 25.1 nM.

In the case of CC[C@H](C)[C@H](NC(=O)[C@](C)(Cc1ccccc1)NC(=O)[C@H](CCC(=O)O)NC(=O)[C@H](CCCCNC(=O)CCCCCNC(=O)CCCCCCCCCCCCCCCCC(=O)O)NC(=O)[C@H](C)NC(=O)[C@H](C)NC(=O)[C@H](CCC(=O)O)NC(=O)CNC(=O)[C@H](CCC(=O)O)NC(=O)[C@H](CC(C)C)NC(=O)[C@](C)(Cc1ccccc1)NC(=O)[C@H](CO)NC(=O)[C@](C)(CO)NC(=O)[C@@H](NC(=O)[C@H](CC(=O)O)NC(=O)[C@H](CO)NC(=O)[C@@H](NC(=O)[C@](C)(Cc1ccccc1)NC(=O)[C@H](CO)NC(=O)CNC(=O)[C@H](CCC(=O)O)NC(=O)C(C)(C)NC(=O)[C@@H](N)Cc1c[nH]cn1)[C@@H](C)O)C(C)C)C(=O)N[C@@H](C)C(=O)N[C@@](C)(Cc1ccccc1)C(=O)N[C@H](C(=O)N[C@H](C(=O)N[C@@](C)(CCCCN)C(=O)NCC(=O)NCC(N)=O)C(C)C)C(C)C [compound 158], the EC50 [1, 4] is reported as 140 pM, the EC50 [1, 5] is reported as 148 pM and the EC50 [1, 6] is reported as 160 pM. For the same compound, the EC50 [2, 7] was no less than 28 nM, the EC50 [3, 8] was no less than 28 nM and the EC50 [3, 7] was no less than 28 nM.

Work on CCCCCCCCCCCCCCCCCC(=O)NCCOCCOCC(=O)NCCCC[C@H](NC(=O)[C@@H](NC(=O)[C@@H](NC(=O)[C@](C)(Cc1ccccc1)NC(=O)[C@H](C)NC(=O)[C@@H](NC(=O)[C@](C)(Cc1ccccc1)NC(=O)[C@H](CCC(=O)O)NC(=O)[C@](C)(CCCCN)NC(=O)[C@H](C)NC(=O)[C@H](C)NC(=O)[C@H](CCC(=O)O)NC(=O)CNC(=O)[C@H](CCC(=O)O)NC(=O)[C@H](CC(C)C)NC(=O)[C@](C)(Cc1ccccc1)NC(=O)[C@H](CO)NC(=O)[C@](C)(CO)NC(=O)[C@@H](NC(=O)[C@H](CC(=O)O)NC(=O)[C@H](CO)NC(=O)[C@@H](NC(=O)[C@](C)(Cc1ccccc1)NC(=O)[C@H](CO)NC(=O)CNC(=O)[C@H](CCC(=O)O)NC(=O)C(C)(C)NC(=O)[C@@H](N)Cc1c[nH]cn1)[C@@H](C)O)C(C)C)[C@@H](C)CC)C(C)C)C(C)C)C(=O)NCC(=O)NCC(N)=O [compound 188] yielded an EC50 [1, 4] of 170 pM, an EC50 [1, 5] of 125 pM and an EC50 [1, 6] of 77 pM. It also gave an EC50 [2, 7] of no less than 28 nM, an EC50 [3, 8] of no less than 28 nM and an EC50 [3, 7] of no less than 28 nM.

CC[C@H](C)[C@H](NC(=O)[C@](C)(Cc1ccccc1)NC(=O)[C@H](CCC(=O)O)NC(=O)[C@](C)(CCCCN)NC(=O)[C@H](C)NC(=O)[C@H](C)NC(=O)[C@H](CCC(=O)O)NC(=O)CNC(=O)[C@H](CCC(=O)O)NC(=O)[C@H](CC(C)C)NC(=O)[C@](C)(Cc1ccccc1)NC(=O)[C@H](CO)NC(=O)[C@](C)(CO)NC(=O)[C@@H](NC(=O)[C@H](CC(=O)O)NC(=O)[C@H](CO)NC(=O)[C@@H](NC(=O)[C@](C)(Cc1ccccc1)NC(=O)[C@H](CO)NC(=O)CNC(=O)[C@H](CCC(=O)O)NC(=O)C(C)(C)NC(=O)[C@@H](N)Cc1c[nH]cn1)[C@@H](C)O)C(C)C)C(=O)N[C@@H](C)C(=O)N[C@@](C)(Cc1ccccc1)C(=O)N[C@H](C(=O)N[C@H](C(=O)N[C@@H](CCCCNC(=O)CCCCCNC(=O)CCCCCNC(=O)CCCCCNC(=O)CCCCCCCCCCCCCCCCC(=O)O)C(=O)NCC(=O)NCC(N)=O)C(C)C)C(C)C [compound 196] showed an EC50 ([1]; mean of n1 and n2, read-out: Mean pM GLP-1R) of 125 pM, an EC50 ([1]; replicate n1, read-out: Primary assay EC50 GLP-1R n1) of 190 pM and an EC50 ([1]; replicate n2, read-out: Primary assay EC50 GLP-1R n2) of 63 pM. For the same compound, the EC50 ([2]; second replicate (n2)) was no less than 26 nM, the EC50 ([3]; first replicate) was no less than 26 nM and the EC50 ([3]; second replicate (n2)) was no less than 26 nM.

— patent US20210221866A1, “PROTEASE-RESISTANT LIPIDATED GLP-1 ANALOGS” (MEDIMMUNE LIMITED, priority 2015, published 2021)
